“Also recorded” adds a separate entry of the source.
What was measured:
[1] = tested on: LRRK2 dimers (WT/WT, WT/G2019S, G2019S/G2019S); test: Proximity biotinylation ELISA-based LRRK2 dimerization assay in cells; format: cell-based; details: for LRRK2 dimerization in cells (FIG. 8): 0.1, 1 and 10 μM fluorescently labeled peptide; for LRRK2 dimerization, wild-type homodimers and wild-type/G2019S heterodimers: HEK293 cells
Source text: Proximity biotinylation of LRRK2. To purify LRRK2 dimers, we relied on the proximity biotinylation technique recently described (E. Leandrou et al., Kinase activity of mutant LRRK2 manifests differently in hetero-dimeric vs. homo-dimeric complexes. Biochem J 476, 559-579 (2019); and M. Fernandez-Suarez, T. S. Chen, A. Y. Ting, Protein-protein interaction detection in vitro and in cells by proximity biotinylation. J Am Chem Soc 130, 9251-9253 (2008)). Briefly, two cDNAs were created encoding LRRK2 fusions with biotin ligase (BirA; N-term, Flag-tagged) and an acceptor peptide (AP, N-term; c-Myc tagged), and over-expressed in HEK293T cells grown in biotin-depleted medium (OptiMEM+2% FBS). The following day, the cells were treated with the indicated concentrations of the stapled peptides: LRIP4 and LCIP1. Stock peptides, fluorescently tagged, were diluted in serum-free medium, and added every 24 hours after transfection. After 48 hours following initiation of treatment (i.e. 72 hr of total expression), the cells were extensively washed in PBS, given a brief biotin pulse (50 μM, 5 min, 37° C.), followed by another 3× washes in PBS, centrifuged and the pellet snap frozen in a dry-ice/MeOH bath. Following lysis, extracts were diluted in TBST/BSA (10 mM Tris HCl, pH 7.6; 100 mM NaCl; 0.1% Triton X-100; 1% BSA) and 2.5 μg of protein loaded in parallel ELISA plates, coated with streptavidin (SA; to capture biotinylated LRRK2 dimers) and anti-LRRK2 (to quantify LRRK2 over-expression). To detect and quantify dimeric LRRK2, SA-coated plates were incubated with HRP-conjugated anti-Flag antibodies (1 hour, room temperature). Since the biotin tag is only present on AP-LRRK2 fusions, and the flag epitope tag is located on the BirA-LRRK2 fusion, by using HRP-Flag as our detector reagent, we are specifically labeling dimeric LRRK2 present in the ELISA plates. On the parallel anti-LRRK2 coated plates (clone c41-2), total over-expressed LRRK2 was quantified using HRP-LRRK2 antibodies (clone N241) and used to normalize the relative amounts of dimeric LRRK2. The following LRRK2 dimers were assessed: WT/WT homodimers, WT/G2019S, and G2019S/G2019S homodimers.
In this assay, HEK293T cells expressing either wild-type or G2019S mutants of LRRK2 fusions, either with the biotin ligase BirA or the acceptor peptide AP, were treated with increasing concentrations (0.1, 1, and 10 μM) of each fluorescently labeled peptide.

[2] = tested on: endogenous LRRK2 kinase activity as Rab10 phosphorylation; test: Rab10 phosphorylation in untransfected A549 cells; format: cell-based; details: 10 μM
Source text: To test whether disruption of LRRK2 dimerization can also attenuate Rab phosphorylation, a hyperactive LRRK2 mutant (R1441G) and Rab29 were overexpressed in HEK293T cells (Z. Liu et al., LRRK2 phosphorylates membrane-bound Rabs and is activated by GTP-bound Rab7L1 to promote recruitment to the trans-Golgi network. Hum Mol Genet 27, 385-395 (2018); and E. Purlyte et al., Rab29 activation of the Parkinson's disease-associated LRRK2 kinase. The EMBO Journal 37, 1-18 (2018)). Overexpression of Rab29 induces recruitment of LRRK2 to the trans-golgi network (TGN) and activates it there. After 24-hour transfection, cells were then treated with 10 μM peptide for 15 hours. […] To test the effect of the dimerization inhibitors on endogenous LRRK2 function, we performed a similar experiment using non-transfected A549 cells which natively express detectable levels of both LRRK2 and Rab10.

Chain of LRRK2 dimers (WT/WT, WT/G2019S, G2019S/G2019S) (Q5S007 1328-1878 limits assumed, stated change not applied): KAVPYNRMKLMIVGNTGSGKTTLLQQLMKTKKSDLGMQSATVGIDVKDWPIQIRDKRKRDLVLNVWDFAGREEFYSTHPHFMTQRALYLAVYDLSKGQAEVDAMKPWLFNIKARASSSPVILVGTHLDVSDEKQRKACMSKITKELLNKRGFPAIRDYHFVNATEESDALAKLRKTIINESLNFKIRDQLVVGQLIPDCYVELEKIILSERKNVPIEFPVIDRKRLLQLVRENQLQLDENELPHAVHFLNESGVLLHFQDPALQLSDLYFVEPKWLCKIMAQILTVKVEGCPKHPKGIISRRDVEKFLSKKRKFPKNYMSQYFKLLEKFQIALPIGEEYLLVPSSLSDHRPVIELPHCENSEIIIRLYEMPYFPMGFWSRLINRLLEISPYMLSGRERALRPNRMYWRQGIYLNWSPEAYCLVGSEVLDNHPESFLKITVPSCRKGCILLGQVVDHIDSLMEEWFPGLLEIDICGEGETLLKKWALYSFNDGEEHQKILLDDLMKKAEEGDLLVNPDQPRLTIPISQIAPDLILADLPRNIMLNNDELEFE

Substance	LRRK2 dimerization in cells (FIG. 8) [1]	LRRK2 dimerization, G2019S/G2019S homodimers and G2019S/wild-type heterodimers ([1]; HEK293(T) cells, 10 mM peptide as printed)	LRRK2 dimerization, wild-type homodimers and wild-type/G2019S heterodimers [1]	Rab10 phosphorylation by endogenous LRRK2 [2]
Roc-domain stapled peptide formed from SEQ ID NO. 6 DEKQRKAC(Nle)SKITKEXLNKX, X = (S)-2-(4′-pentenyl)alanine; PEG3 linker, FAM or biotin label (DEKQRKACXSKITKEXLNKX; hydrocarbon staple; Nle; PEG3 linker; FAM or biotin; ROC domain petide; (9)..(9) Xaa is norleucine; (16)..(16) Xaa is (S)-2-(4′-pentenyl)alanine; (20)..(20) Xaa is (S)-2-(4′-pentenyl)alanine) [LRIP4]	effectively disrupts LRRK2 dimerization in cells	statistically significant reduction in both G2019S/G2019S and G2019S/wild-type LRRK2 dimers; also recorded: inhibit dimerization of both wild-type/G2019S LRRK2 heterodimers or G2019S LRRK2 homodimers	inhibit dimerization of both wild-type LRRK2 homodimers and wild-type/G2019S LRRK2 heterodimers	significant reduction in phosphorylation of Rab10; also recorded: inhibition of Rab10 phosphorylation
COR-domain stapled peptide formed from SEQ ID NO. 16 KGEGEXLLKXWK, X = (S)-2-(4′-pentenyl)alanine; PEG3 linker, FAM or biotin label (hydrocarbon staple; PEG3 linker; FAM or biotin; COR domain peptide; (6)..(6) Xaa is (S)-2-(4′-pentenyl)alanine; (10)..(10) Xaa is (S)-2-(4′-pentenyl)alanine) [LCIP1]	failed to consistently lead to a reduction in LRRK2 dimerization; also recorded: no statistically significant effect on dimerization	–	no statistically significant effects on dimerization	–

Source: patent publication US12565520B2, “Chemically-stabilized allosteric modulators of leucine-rich repeat kinase 2 (LRRK2)” (UNIVERSITY OF GEORGIA RESEARCH FOUNDATION, INC., priority 2020, dated 2026)
